The results in this text go back to patent publication US11279683B2, “Thiophene derivatives as antiviral agents” (ENYO PHARMA, priority 2016, dated 2022).

A word on the IC50: it is the concentration at which inhibition is half-maximal. Read a low IC50 as higher potency.

The assay has as its system H1N1 (influenza A/New Caledonia/20/99). Kind of assay: microbe, parasite or virus in culture. In kind it is cell-based. The following applies: Influenza A virus, H1N1, A549, 48 h.
For `O=C(Nc1cnc(Cl)cn1)c1c(NC(=O)C2CCCCC2C(=O)O)sc2c1CCC2` (centres unmarked) [Compound 26, 2-[[3-[(5-Chloropyrazin-2-yl)carbamoyl]-5,6-dihydro-4H-cyclopenta[b]thiophen-2-yl]carbamoyl]cyclohexanecarboxylic acid], the IC50 worked out at 19.3 µM. That is a double-digit micromolar value.
`O=C(Nc1ccc(C(F)(F)F)cc1)c1c(NC(=O)C2CCCCC2C(=O)O)sc2c1CCC2` (centres unmarked) [Compound 27, 2-[[3-[[4-(Trifluoromethyl)phenyl]carbamoyl]-5,6-dihydro-4H-cyclopenta[b]thiophen-2-yl]carbamoyl]cyclohexanecarboxylic acid] came in with an IC50 of 18.1 µM.
For `N#Cc1ccc(NC(=O)c2c(NC(=O)C3CCCCC3C(=O)O)sc3c2CCC3)cc1` (centres unmarked) [Compound 28, 2-[[3-[(4-Cyanophenyl)carbamoyl]-5,6-dihydro-4H-cyclopenta[b]thiophen-2-yl]carbamoyl]cyclohexanecarboxylic acid], the 50% inhibitory concentration (IC50) is 15.9 µM.
The result for `O=C(Nc1ncc(Cl)s1)c1c(NC(=O)C2CCCCC2C(=O)O)sc2c1CCC2` (centres unmarked) [Compound 29, 2-[[3-[(5-Chlorothiazol-2-yl)carbamoyl]-5,6-dihydro-4H-cyclopenta[b]thiophen-2-yl]carbamoyl]cyclohexanecarboxylic acid] reads 6.78 µM.
Regarding `O=C(Nc1ccc2c(c1)COC2)c1c(NC(=O)C2CCCCC2C(=O)O)sc2c1CCC2` (centres unmarked) [Compound 30, 2-[[3-(1,3-Dihydroisobenzofuran-5-ylcarbamoyl)-5,6-dihydro-4H-cyclopenta[b]thiophen-2-yl]carbamoyl]cyclohexanecarboxylic acid], the IC50 came to 19.6 µM. This IC50 lies about 2.9-fold higher than the previous one.
On to `CS(=O)(=O)c1ccc(NC(=O)c2c(NC(=O)C3CCCCC3C(=O)O)sc3c2CCC3)cc1` (centres unmarked) [Compound 31, 2-[[3-[(4-Methylsulfonylphenyl)carbamoyl]-5,6-dihydro-4H-cyclopenta[b]thiophen-2-yl]carbamoyl]cyclohexanecarboxylic acid], for which the half-inhibitory concentration (IC50) came to 27.3 µM.
`O=C(Nc1ccc(C(F)(F)F)nc1)c1c(NC(=O)C2CCCCC2C(=O)O)sc2c1CCC2` (centres unmarked) [Compound 32, 2-[[3-[[6-(Trifluoromethyl)-3-pyridyl]carbamoyl]-5,6-dihydro-4H-cyclopenta[b]thiophen-2-yl]carbamoyl]cyclohexanecarboxylic acid] showed an IC50 of 22 µM.
As for `Cc1cncc(NC(=O)c2c(NC(=O)C3CCCCC3C(=O)O)sc3c2CCC3)c1` (centres unmarked) [Compound 33, 2-[[3-[(5-Methyl-3-pyridyl)carbamoyl]-5,6-dihydro-4H-cyclopenta[b]thiophen-2-yl]carbamoyl]cyclohexanecarboxylic acid], the figure is 27.4 µM; as for `CN(C(=O)c1c(NC(=O)C2CCCCC2C(=O)O)sc2c1CCC2)c1ccc(Cl)cc1` (centres unmarked) [Compound 34, 2-[[3-[(4-Chlorophenyl)-methyl-carbamoyl]-5,6-dihydro-4H-cyclopenta[b]thiophen-2-yl]carbamoyl]cyclohexanecarboxylic acid], 30.4 µM.
Molecule `CC1CCC(NC(=O)c2c(NC(=O)C3CCCCC3C(=O)O)sc3c2CCC3)CC1` (centres unmarked) [Compound 35, 2-[[3-[(4-Methylcyclohexyl)carbamoyl]-5,6-dihydro-4H-cyclopenta[b]thiophen-2-yl]carbamoyl]cyclohexanecarboxylic acid] returned an IC50 of 12.4 µM.
In turn, `O=C(O)C1CCCCC1C(=O)Nc1sc2c(c1C(=O)N1CCN(c3ccc(Cl)cc3)CC1)CCC2` (centres unmarked) [Compound 36, 2-[[3-[4-(4-chlorophenyl)piperazine-1-carbonyl]-5,6-dihydro-4H-cyclopenta[b]thiophen-2-yl]carbamoyl]cyclohexanecarboxylic acid] showed a concentration for half-maximal inhibition (IC50) of 21 µM.
The molecule `O=C(Nc1ccc(Cl)cc1)c1c(NC(=O)C2CCCCC2C(=O)O)sc2c1CCOC2` (centres unmarked) [Compound 37, 2-[[3-[(4-Chlorophenyl)carbamoyl]-5,7-dihydro-4H-thieno[2,3-c]pyran-2-yl]carbamoyl]cyclohexanecarboxylic acid] returned an IC50 of 43.4 µM.
As to `O=C(Nc1ccc(Cl)cc1)c1c(NC(=O)C2CCCCC2C(=O)O)sc2c1CSC2` (centres unmarked) [Compound 38, 2-[[3-[(4-Chlorophenyl)carbamoyl]-4,6-dihydrothieno[3,4-b]thiophen-2-yl]carbamoyl]cyclohexanecarboxylic acid], the IC50 was 6.44 µM.
`CC1OCc2sc(NC(=O)C3CCCCC3C(=O)O)c(C(=O)Nc3ccc(Cl)cc3)c21` (centres unmarked) [Compound 39, 2-[[3-[(4-Chlorophenyl)carbamoyl]-4-methyl-4,6-dihydrothieno[2,3-c]furan-2-yl]carbamoyl]cyclohexanecarboxylic acid] yielded an IC50 of 53.5 µM.
`O=C(Nc1ccc(Cl)cc1)c1c(NC(=O)C2CCCCC2C(=O)O)sc2c1CCS2` (centres unmarked) [Compound 40, 2-[[4-[(4-Chlorophenyl)carbamoyl]-2,3-dihydrothieno[2,3-b]thiophen-5-yl]carbamoyl] cyclohexanecarboxylic acid] returned an IC50 of 7.35 µM. Against the preceding molecule, the IC50 is about 7.3-fold lower.
The molecule `O=C(O)C=CC(=O)Nc1sc2c(c1C(=O)Nc1ccc(Cl)cc1)CCC2` [Compound 43, 4-[[3-[(4-Chlorophenyl)carbamoyl]-5,6-dihydro-4H-cyclopenta[b]thiophen-2-yl]amino]-4-oxo-but-2-enoic acid] yielded an IC50 of 33.2 µM.
Take `O=C(O)c1ccccc1C(=O)Nc1sc2c(c1C(=O)Nc1ccc(Cl)cc1)CCC2` [Compound 44, 2-[[3-[(4-Chlorophenyl)carbamoyl]-5,6-dihydro-4H-cyclopenta[b]thiophen-2-yl]carbamoyl]benzoic acid]: half-maximal inhibition (IC50) required 21.6 µM.
The result for `O=C(O)CC1(CC(=O)Nc2sc3c(c2C(=O)Nc2ccc(Cl)cc2)CCC3)CCCC1` [Compound 45, 2-[1-[2-[[3-[(4-Chlorophenyl)carbamoyl]-5,6-dihydro-4H-cyclopenta[b]thiophen-2-yl]amino]-2-oxo-ethyl]cyclopentyl]acetic acid] reads 8.1 µM; that for `O=C(Nc1ccc(Cl)cc1)c1c(NC(=O)C2CCCC2C(=O)O)sc2c1CCC2` (centres unmarked) [Compound 46, 2-[[3-[(4-Chlorophenyl)carbamoyl]-5,6-dihydro-4H-cyclopenta[b]thiophen-2-yl]carbamoyl]cyclopentanecarboxylic acid], 17.4 µM; that for `CC(C)(CC(=O)O)CC(=O)Nc1sc2c(c1C(=O)Nc1ccc(Cl)cc1)CCC2` [Compound 47, 5-[[3-[(4-Chlorophenyl)carbamoyl]-5,6-dihydro-4H-cyclopenta[b]thiophen-2-yl]amino]-3,3-dimethyl-5-oxo-pentanoic acid], 22.7 µM.
As for `O=C(Nc1ccc(Cl)cc1)c1c(NC(=O)C2CC=CCC2C(=O)O)sc2c1CCC2` (centres unmarked) [Compound 48, 6-[[3-[(4-Chlorophenyl)carbamoyl]-5,6-dihydro-4H-cyclopenta[b]thiophen-2-yl]carbamoyl]cyclohex-3-ene-1-carboxylic acid], the IC50 was 11.2 µM.
`O=C(Nc1ccc(Cl)cc1)c1c(NC(=O)C2CCCCC2C(=O)O)sc2c1CCC2` (stereo not drawn) [Compound 49, 2-[[3-[(4-Chlorophenyl)carbamoyl]-5,6-dihydro-4H-cyclopenta[b]thiophen-2-yl]carbamoyl]cyclohexane-trans-carboxylic acid] came in with an IC50 of 12.2 µM.
The result for `O=C(O)CCC(=O)Nc1sc2c(c1C(=O)Nc1ccc(Cl)cc1)CCC2` [Compound 50, 4-[[3-[(4-Chlorophenyl)carbamoyl]-5,6-dihydro-4H-cyclopenta[b]thiophen-2-yl]amino]-4-oxo-butanoic acid] reads 33.2 µM.
In the case of `O=C(Nc1ccc(Cl)cc1)c1c(NC(=O)C2C3CCC(O3)C2C(=O)O)sc2c1CCC2` (centres unmarked) [Compound 51, 2-[[3-[(4-Chlorophenyl)carbamoyl]-5,6-dihydro-4H-cyclopenta[b]thiophen-2-yl]carbamoyl]-7-oxabicyclo[2.2.1]heptane-3-carboxylic acid], 29.7 µM corresponded to half-maximal inhibition (IC50).
On to `O=C(Nc1ccc(Cl)cc1)c1c(NC(=O)C2CCCCC2)sc2c1CCC2` [Compound 52, N-(4-Chlorophenyl)-2-(cyclohexanecarbonylamino)-5,6-dihydro-4H-cyclopenta[b]thiophene-3-carboxamide], for which it took 29.3 µM to reach half-maximal inhibition (IC50).
The result for `O=C1CCCC(C(=O)Nc2sc3c(c2C(=O)Nc2ccc(Cl)cc2)CCC3)C1` (centres unmarked) [Compound 53, N-(4-Chlorophenyl)-2-[(3-oxocyclohexanecarbonyl)amino]-5,6-dihydro-4H-cyclopenta[b]thiophene-3-carboxamide] reads 12.8 µM.
As for `O=C(Nc1ccc(Cl)cc1)c1c(N2C(=O)C3CCCCC3C2=O)sc2c1CCC2` (centres unmarked) [Compound 54, N-(4-Chlorophenyl)-2-(1,3-dioxo-3a,4,5,6,7,7a-hexahydroisoindol-2-yl)-5,6-dihydro-4H-cyclopenta[b]thiophene-3-carboxamide], the figure is 5.98 µM.
For `NC(=O)C1CCCCC1C(=O)Nc1sc2c(c1C(=O)Nc1ccc(Cl)cc1)CCC2` (centres unmarked) [Compound 55, N2-[3-[(4-Chlorophenyl)carbamoyl]-5,6-dihydro-4H-cyclopenta[b]thiophen-2-yl]cyclohexane-1,2-dicarboxamide], the concentration for half-maximal inhibition (IC50) came out at 27 µM. Compared with the last molecule, the IC50 is about 4.5-fold higher.
On to `O=C(Nc1ccc(Cl)cc1)c1c(NC(=O)C2CCCCC2CO)sc2c1CCC2` (centres unmarked) [Compound 56, N-(4-Chlorophenyl)-2-[[2-(hydroxymethyl)cyclohexanecarbonyl]amino]-5,6-dihydro-4H-cyclopenta[b]thiophene-3-carboxamide], for which half-maximal inhibition (IC50) was put at 24 µM.
Take `Cc1cccc(NC(=O)c2c(NC(=O)C3CCCCC3C(=O)O)sc3c2CCC3)c1` (centres unmarked) [Compound 58, 2-[[3-(m-Tolylcarbamoyl)-5,6-dihydro-4H-cyclopenta[b]thiophen-2-yl]carbamoyl]cyclohexanecarboxylic acid]: half-maximal inhibition (IC50) was put at 27.6 µM.
The result for `CCc1c(C)sc(NC(=O)C2CCCCC2C(=O)O)c1C(=O)Nc1ccc(Cl)cc1` (centres unmarked) [Compound 59, 2-[[3-[(4-Chlorophenyl)carbamoyl]-4-ethyl-5-methyl-2-thienyl]carbamoyl]cyclohexanecarboxylic acid] reads 53.5 µM.
Consider `Cc1ccc(NC(=O)c2c(NC(=O)C3CC=CCC3C(=O)O)sc3c2CCCC3)cc1` (centres unmarked) [Compound 60, 6-[[3-(p-Tolylcarbamoyl)-4,5,6,7-tetrahydrobenzothiophen-2-yl]carbamoyl]cyclohex-3-ene-1-carboxylic acid], for which the IC50 was 54.8 µM.
